In patent publication US8557767B2, “Synthetic apolipoprotein E mimicking polypeptides and methods of use” (UAB Research Foundation, priority 2007, dated 2013):

Legend:
human VLDL = details: cited from earlier work
[1] = tested on: atherogenic apo B-containing lipoproteins in human plasma; details: cited from earlier work
apo E null mice [2] = assay: Plasma cholesterol in apo E null mice after i.v. 18L-2Y or R18L-2Y; type: in vivo; details: 100 ug i.v.
Source text: Dual domain peptide that has LRKLRKRLLR (SEQ ID NO: 1), a sequence from apo E putative receptor binding domain, covalently linked to 18A (SEQ ID NO: 11) enhances uptake and degradation of apo B-containing lipoproteins. […] It has also been previously shown that that if the Lys residues are replaced by Arg, compared to the Lys-containing peptide, the resulting Arg-containing peptide has only 2% of lysis (Aikawa, M., et al. Circulation 106:1390-1396 2002). […] Rearrangement of the nonpolar face of 18L to incorporate aromatic residues at the center of the nonpolar face yields 18L-2. Addition of Tyr (for radiolabeling) yields 18L-2Y (FIG. 15). All of the Lys residues changed to Arg results in R18L2Y (FIG. 15).

apo E null mice [3] = assay: Oral feeding of peptides in chow to apo E null mice: plasma cholesterol and aortic sinus lesion
Method: The peptides were mixed in normal chow (1 mg/4 g chow) and fed ad libitum.
The study was continued for 6 weeks.

HepG2 cells = assay: Apo A-I / prebeta-HDL secretion by HepG2 cells; type: cell-based; details: for prebeta-HDL production: equal amount on weight basis (50 ug/ml), first overnight incubation; for prebeta-HDL amount after second and third overnight incubation: fresh cell medium without peptide
apo E null mice [4] = assay: Plasma cholesterol in apo E null mice after i.v. dual-domain peptides; type: in vivo; details: iv, n=4
Method: The peptides represented are Ac-hE-18A-NH2, Ac-hE4F-NH2, and Ac-hE-Sc2F-NH2. Peptides Ac-hE-18A-NH2, Ac-hE-4F-NH2 and Ac-hE-Sc18A were administered (i.v.) to apo E null mice (n=4) and plasma cholesterol values were determined at before administration (0 min), 5 min and 2 h after administration.
As described above, peptides Ac-hE-18A-NH2, Ac-hE-4F-NH2 and Ac-hE-Sc18A were administered (iv) to apo E null mice (n=4) and plasma cholesterol values were determined at before administration (0 min), 5 min and 2 h after administration.

Substance	association with atherogenic apo B-containing lipoproteins [1]	prebeta-HDL production (HepG2 cells)	prebeta-HDL amount after second and third overnight incubation (HepG2 cells)	other results
Ac-18A-NH2: control peptide; end protected 18A (DWLKAFYDKVAEKLKEAF) (Ac-DWLKAFYDKVAEKLKEAF-NH2) [reference compound]	not			interaction with VLDL (human VLDL): displacement of apo E from VLDL
Ac-GFRRFLGSWARIYRAFVG-NH2 [R18L-2Y]				ability to clear plasma cholesterol (apo E null mice [2]): increased ability to clear plasma cholesterol compared to 18L-2Y; plasma cholesterol at end of 6 week feeding (apo E null mice [3]; 1 mg per 4 g chow): significantly reduced; atherosclerotic lesion formation, aortic sinus, Oil Red O (apo E null mice [3]; 1 mg per 4 g chow, 6 weeks, four week old female mice): significantly less lesion formation; plasma cholesterol levels at 15 days and 30 days (apo E null mice [3]; 1 mg/4 g of chow per animal per day, n=5): significant decrease
Ac-hE-4F-NH2: dual-domain cationic peptide, hE linked to 4F, end protected (Ac-LRKLRKRLLRDWFKAFYDKVAEKFKEAF-NH2)		produced preβ-HDL	produced significant amounts	reduction in plasma cholesterol levels at 2 h time point (apo E null mice [4]): large reduction
DWFKAFYDKVAEKFKEAF [4F, reference compound]		produced preβ-HDL	levels similar to that of control cell medium	
LRKLRKRLLR	not			
